According to patent US10285982B2, “3-(1H-pyrrolo[2,3-B]pyridin-2-yl)-1H-pyrazolo[3,4-C]pyridines and therapeutic uses thereof” (Samumed, LLC, priority 2015, dated 2019):

Tests used:
Type in all cases: cell-based
[1] = test system: Wnt activity (Sp5-Luc reporter, SW480 colon carcinoma cells); experiment: Wnt activity screening assay, Sp5-Luc reporter gene in SW480 cells; settings: Homo sapiens; for inhibition at 10 µM: given where EC50 >10 μM, read-out: percent inhibition at 10 μM; for EC50: overnight incubation
Procedure, shortened: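 Luminescence read-out (BrightGlo) from stable Sp5-Luc SW480 cells, normalized to DMSO-only wells. Cells were treated overnight at 37° C in 1% FBS medium across a 1:3, 10-point series starting at 10 μM. EC50 from variable-slope four-parameter regression; percent inhibition at 10 μM given where EC50 >10 μM.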

SW480 colon cancer cells = experiment: Cell viability assay (CellTiter-Blue); settings: Homo sapiens, 96 h, four days; for inhibition at 10 µM: given where EC50 >10 μM, read-out: percent inhibition at 10 μM
Procedure, shortened: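 Resazurin reduction (Ex 560/Em 590 nm, ~3 h reagent incubation) served as the viability read-out after SW480 cells were treated for four days at 37 °C. Doses ran from 10 μM down to 0.0045 μM in eight 1:3 steps. Curves fitted non-linearly for EC50, else % inhibition at 10 μM reported.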

[2] = test system: primary human fibroblasts derived from IPF patients (LL29 cells) treated with TGF-β1; experiment: Inhibition of fibrotic process, αSMA staining in TGF-β1 treated LL29 fibroblasts; settings: Fibroblast; for EC50: 96 h, % αSMA positive LL29 cells, TGF-β1 20 ng/mL, 4 days; for inhibition at 10 µM: given where EC50 >10 μM, αSMA, LL29 cells, TGF-β1, read-out: percent inhibition at 10 μM
Procedure, shortened: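 EC50 values come from non-linear fits of the αSMA-positive percentage among SYTOX-excluded live cells, normalized to TGF-β1 plus DMSO controls, or appear as % inhibition at 10 μM when above 10 μM. Fibrosis was induced in IPF-derived LL29 fibroblasts by 20 ng/mL TGF-β1 over 4 days, with 1:2 compound dilutions from 10 μM.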

SMILES | inhibition at 10 µM [1] [%] | EC50 [1] [µM] | inhibition at 10 µM (SW480 colon cancer cells) [%] | EC50 (SW480 colon cancer cells) [µM] | EC50 [2] [nM] | inhibition at 10 µM [2] [%]
CN(C)CCNc1cc(F)cc(-c2ccnc3[nH]c(-c4n[nH]c5cnc(-c6ccncc6)cc45)cc23)c1 [Compound 466, N^1-(3-Fluoro-5-(2-(5-(pyridin-4-yl)-1H-pyrazolo[3,4-c]pyridin-3-yl)-1H-pyrrolo[2,3-b]pyridin-4-yl)phenyl)-N^2,N^2-dimethylethane-1,2-diamine] | 16.5 | > 10 | 16.8 | > 10 | 1740 | –
c1cc(N2CCCCC2)c2cc(-c3n[nH]c4cnc(-c5cncc(CN6CCCC6)c5)cc34)[nH]c2n1 [Compound 182, 3-(4-(Piperidin-1-yl)-1H-pyrrolo[2,3-b]pyridin-2-yl)-5-(5-(pyrrolidin-1-ylmethyl)pyridin-3-yl)-1H-pyrazolo[3,4-c]pyridine] | 41.4 | > 10 | 54.9 | > 10 | 4510 | –
O=C(Nc1cncc(-c2cc3c(-c4cc5cccnc5[nH]4)n[nH]c3cn2)c1)C1CC1 [Compound 272, N-(5-(3-(1H-Pyrrolo[2,3-b]pyridin-2-yl)-1H-pyrazolo[3,4-c]pyridin-5-yl)pyridin-3-yl)cyclopropanecarboxamide] | 19.3 | > 10 | 23.3 | > 10 | 9980 | –
CCCCC(=O)Nc1cncc(-c2cc3c(-c4cc5c(-c6cccnc6)ccnc5[nH]4)n[nH]c3cn2)c1 [Compound 103, N-(5-(3-(4-(Pyridin-3-yl)-1H-pyrrolo[2,3-b]pyridin-2-yl)-1H-pyrazolo[3,4-c]pyridin-5-yl)pyridin-3-yl)pentanamide] | 7.8 | > 10 | 7.4 | > 10 | > 10000 | 4.8
Nc1cncc(-c2cc3c(-c4cc5c(-c6ccoc6)ccnc5[nH]4)n[nH]c3cn2)c1 [Compound 311, 5-(3-(4-(Furan-3-yl)-1H-pyrrolo[2,3-b]pyridin-2-yl)-1H-pyrazolo[3,4-c]pyridin-5-yl)pyridin-3-amine] | 23.2 | > 10 | 5.5 | > 10 | 1030 | –
CN1CCN(c2ccnc3[nH]c(-c4n[nH]c5cnc(-c6cncc(NC(=O)CC7CCNCC7)c6)cc45)cc23)CC1 [Compound 641, N-(5-(3-(4-(4-Methylpiperazin-1-yl)-1H-pyrrolo[2,3-b]pyridin-2-yl)-1H-pyrazolo[3,4-c]pyridin-5-yl)pyridin-3-yl)-2-(piperidin-4-yl)acetamide] | 8 | > 10 | 13.1 | > 10 | 4970 | –
CC(C)(C)C(=O)Nc1cncc(-c2cc3c(-c4cc5c(-c6cccc(F)c6)ccnc5[nH]4)n[nH]c3cn2)c1 [Compound 8, N-(5-(3-(4-(3-Fluorophenyl)-1H-pyrrolo[2,3-b]pyridin-2-yl)-1H-pyrazolo [3,4-c]pyridin-5-yl)pyridin-3-yl)pivalamide] | – | 0.073 | – | 0.723 | 33 | –
CN(C)CCOc1cncc(-c2cc3c(-c4cc5c(-c6cccnc6)ccnc5[nH]4)n[nH]c3cn2)c1 [Compound 563, N,N-Dimethyl-2-((5-(3-(4-(pyridin-3-yl)-1H-pyrrolo[2,3-b]pyridin-2-yl)-1H-pyrazolo[3,4-c]pyridin-5-yl)pyridin-3-yl)oxy)ethan-1-amine] | 28.8 | > 10 | 0 | > 10 | 1110 | –
CC(C)C(=O)Nc1cncc(-c2cc3c(-c4cc5c(-c6ccc(F)cc6)ccnc5[nH]4)n[nH]c3cn2)c1 [Compound 37, N-(5-(3-(4-(4-Fluorophenyl)-1H-pyrrolo[2,3-b]pyridin-2-yl)-1H-pyrazolo [3,4-c]pyridin-5-yl)pyridin-3-yl)isobutyramide] | – | 0.671 | – | 2.69 | 668 | –
O=C(Nc1cncc(-c2cc3c(-c4cc5c(-c6ccc(F)cc6)ccnc5[nH]4)n[nH]c3cn2)c1)C1CCC1 [Compound 49, N-(5-(3-(4-(4-Fluorophenyl)-1H-pyrrolo[2,3-b]pyridin-2-yl)-1H-pyrazolo [3,4-c]pyridin-5-yl)pyridin-3-yl)cyclobutanecarboxamide] | – | 0.747 | – | 4.64 | 1530 | –
CC(C)(C)C(=O)Nc1cncc(-c2cc3c(-c4cc5c(-c6cccnc6)ccnc5[nH]4)n[nH]c3cn2)c1 [Compound 92, N-(5-(3-(4-(Pyridin-3-yl)-1H-pyrrolo[2,3-b]pyridin-2-yl)-1H-pyrazolo[3,4-c]pyridin-5-yl)pyridin-3-yl)pivalamide] | 3.4 | > 10 | 14.9 | > 10 | > 10000 | 2.4
O=C(Nc1cncc(-c2cc3c(-c4cc5c(-c6ccncc6)ccnc5[nH]4)n[nH]c3cn2)c1)C1CCCCC1 [Compound 135, N-(5-(3-(4-(Pyridin-4-yl)-1H-pyrrolo[2,3-b]pyridin-2-yl)-1H-pyrazolo[3,4-c]pyridin-5-yl)pyridin-3-yl)cyclohexanecarboxamide] | 13 | > 10 | 10.3 | > 10 | > 10000 | 10.8
O=C(Cc1ccccc1)Nc1cncc(-c2cc3c(-c4cc5c(-c6ccncc6)ccnc5[nH]4)n[nH]c3cn2)c1 [Compound 122, 2-Phenyl-N-(5-(3-(4-(pyridin-4-yl)-1H-pyrrolo[2,3-b]pyridin-2-yl)-1H-pyrazolo[3,4-c]pyridin-5-yl)pyridin-3-yl)acetamide] | 7.9 | > 10 | 7 | > 10 | > 10000 | 8.1
CCC(=O)Nc1cncc(-c2cc3c(-c4cc5c(-c6cccc(F)c6)ccnc5[nH]4)n[nH]c3cn2)c1 [Compound 1, N-(5-(3-(4-(3-Fluorophenyl)-1H-pyrrolo[2,3-b]pyridin-2-yl)-1H-pyrazolo [3,4-c]pyridin-5-yl)pyridin-3-yl)propionamide] | 24.3 | > 10 | 36.3 | > 10 | 1620 | –
O=C(Nc1cncc(-c2cc3c(-c4cc5cccnc5[nH]4)n[nH]c3cn2)c1)c1ccccc1 [Compound 263, N-(5-(3-(1H-Pyrrolo[2,3-b]pyridin-2-yl)-1H-pyrazolo[3,4-c]pyridin-5-yl)pyridin-3-yl)benzamide] | 17 | > 10 | 22.5 | > 10 | > 10000 | 55.3
c1cncc(-c2ccnc3[nH]c(-c4n[nH]c5cnc(-c6cncnc6)cc45)cc23)c1 [Compound 111, 3-(4-(Pyridin-3-yl)-1H-pyrrolo[2,3-b]pyridin-2-yl)-5-(pyrimidin-5-yl)-1H-pyrazolo[3,4-c]pyridine] | 7.8 | > 10 | 17.3 | > 10 | > 10000 | 1.4
O=C(Nc1cncc(-c2cc3c(-c4cc5c(-c6ccccc6F)ccnc5[nH]4)n[nH]c3cn2)c1)C1CCCCC1 [Compound 79, N-(5-(3-(4-(2-Fluorophenyl)-1H-pyrrolo[2,3-b]pyridin-2-yl)-1H-pyrazolo [3,4-c]pyridin-5-yl)pyridin-3-yl)cyclohexanecarboxamide] | – | 0.359 | – | 3.49 | 1340 | –
